Peptide text beside a SMILES is read from it.
Assays:
PLCs containing PMCs = assay: NT degradation by peritoneal lavage cells (PLCs) containing peritoneal mast cells; assay type: cell-based, mouse; conditions: Kit+/+ PLCs pre-treated 15 min at 37° C. (chym 100 μM, CFp 10 μM, PCI 10 μg/ml, p03 100 nM); NT 10 μM, 30 min
Description: FIG. 5. Neurolysin and carboxypeptidase inhibitors prevent NT degradation by peritoneal mast cells. Kit^+/+ PLCs containing 5×10^4 PMCs were pre-treated for 15 min at 37° C. with one of the following protease inhibitors: chymostatin (chym, chymase inhibitor at 100 μM), CFp-Ala-Ala-Phe-pAB (CFp, […] at 10 μM only for PLCs), potato carboxypeptidase inhibitor (PCI, carboxypeptidase inhibitor at 10 μg/ml) and phosphodiepryl 03 (p03, neurolysin inhibitor at 100 nM for PLCs. Cells were then incubated with NT (10 μM) for 30 min at 37° C. Results are the percentage of NT remaining after incubation with cells compared to the starting concentration of NT (n=4-9 per group).
FIG. 12. (a), PLCs containing 1×10^4 PMCs obtained from either wild type C57BL/6 mice, Ntsr1-deficient (Ntsr1^−/−) mice or Ntsr2-deficient (Ntsr2^−/−) mice were incubated for 2 h with ^3H-5-hydroxytryptamine (3H-serotonin) at 37° C. and stimulated for 15 min at 37° C. with either ET-1 (4 μM) or NT (10 μM). (b), PLCs containing 1×10^4 PMCs obtained from C57BL/6 mice were incubated for 2 h with ^3H-serotonin and stimulated for 15 min with either ET-1 (4 μM) or NT (10 μM). In a separate set of experiments, cells were pre-incubated with BAPTA-AM (Sigma) ([…], 15 min at […]) before the addition of the stimuli. Results are mean ±SEM of 3 experiments. (c), mMC-CPA activity was measured in supernatants obtained from Kit^+/+ PLCs containing 5×10^4 PMCs that were stimulated for 30 min at 37° C. with either ET-1 (4 μM) or NT (10 μM). (d), PLCs containing 5×10^4 PMCs from C57BL/6J mice were pre-treated for 15 min at 37° C. with BAPTA-AM ([…], a Ca^2+ chelator that can reduce MC degranulation) and then incubated with NT (10 μM) for 30 min at 37° C. Results are expressed as the percentage of NT remaining after incubation with cells compared to that in samples of NT incubated in vehicle alone at 37° C. (data were pooled from triplicate determinations in two independent experiments that gave similar results). (e), Expression of mRNA for NT-receptors in the AtT20 neuroendocrine cell line, the mast cell line C1.MC/C57.1, C57BL/6J BMCMCs, Kit^+/+ BMCMCs and peritoneal mast cells purified from Kit^+/+ mice (PMCs).
NT, ET-1, C-reactive protein, and TNF measurements. Concentrations of NT, C-reactive protein, ET-1 and TNF were measured by ELISA (Bachem Peninsula Labs for NT; Biomedica, Vienna for C-reactive protein and ET-1; BD Biosciences for TNF). […] The detection limits for the ELISA kits were: 24 fmol/ml (NT), 0.048 fmol/ml (ET-1), 0.124 ng/ml (C-reactive protein) and […] (human TNF).

neurolysin (NLN) = molecular target: T1, neurolysin (NLN) (Mus musculus, UniProt Q91YP2); assay: NT degradation by membrane and cytosol preparations of BMCMCs; assay type: biochemical; conditions: Pro-Ile 10 mM; NT 10 μM
T1 construct: membrane and cytosol preparations obtained from Kit^+/+ BMCMCs (2×10^6 cells/preparation); endogenous in cells; host or cells: Kit+/+ mouse bone marrow-derived cultured mast cells (BMCMCs), membrane and cytosol fractions
Description: FIG. 8. MC-associated neurolysin (NLN) contributes to the MCs' ability to reduce NT-induced hypotension. (a) Identification of NLN in the membrane and cytosol fractions of C1.MC/C57.1 MCs and C57BL/6J BMCMCs. […] Results are expressed as the percentage of NT remaining after incubation with membrane or cytosol preparations compared to that in samples of NT incubated in vehicle alone (n=3). (c, d) Degradation of NT (10 μM) by A23187 (5 μM)-activated Kit^+/+ BMCMCs (2×10^5) that were pre-treated with either empty vector, Neurolysin-short hairpin RNA (NLN-shRNA) or mouse MC carpoxypeptidase A-short hairpin RNA (mMC-CPA-shRNA). Cells were incubated with NT for 30 min at 37° C. Results are expressed as the percentage of NT remaining in the samples compared to that in samples of NT incubated in vehicle alone at 37° C. (n=3). (e) Changes in MAP versus baseline levels (=“0”, measured 3 min after injection of 300 μl saline, i.p.) at various times after injection of NT (6 nmol in 300 μl saline, i.p.) in Kit^W/W-v mice which had been engrafted i.p. with Kit^+/+ BMCMCs treated with either empty vector (empty vector MCs→Kit^W/W-v), NLN-shRNA (NLN-shRNA MCs→Kit^W/W-v) or mMC-CPA-shRNA (mMC-CPA-shRNA MCs→Kit^W/W-v). (f) MCs in the peritoneal cavity (arrows, MCs; scale bars, 100 μm; May Grunwald-modified Giemsa stain) and mesentery (arrows, MCs; scale bars, 100 μm; Czaba stain). […]

NTR1 = conditions: different tissues and cells from various species; cited from earlier work
PMCs = assay: Internalization of rhodamine-labelled peptide by PMCs (flow cytometry, confocal microscopy); assay type: cell-based, mouse
Description: FIG. 11. […] P<0.0001 versus corresponding NT- or ET-1-injected groups. […] (b) Flow cytometry analysis and confocal microscopy of C57BL/6 PMCs incubated with NT-rhodamine (50 μM) (red) at 4° C. (0 min) or placed at 37° C. for 5 or 15 min. PMCs were identified among other PLCs by flow cytometry by staining of IgE bound to the MCs (green). […] (c) PLCs containing 5×10^4 PMCs from either C57BL/6, Ntsr1^−/− or Ntsr2^−/− mice were incubated with NT (10 μM) for 30 min at 37° C. Results are expressed as the percentage of NT remaining after incubation with cells compared to that in samples of NT incubated in vehicle alone at 37° C. (data were pooled from triplicate determinations in two independent experiments that gave similar results). (d,e) Changes in MAP vs. baseline levels (=“0”, measured 3 min after injection of 300 μl saline, i.p.) at various times after injection of NT (6 nmol in 300 μl saline, i.p.) (d), and NT levels in the peritoneal fluids of these mice at 30 min after injection (e), in Kit^W/W-v mice that had been engrafted i.p. with BMCMCs of C57BL/6-Ntsr1^+/+ or -Ntsr1^−/− origin. (f) Survival after CLP (50% ligation; single puncture with 22 G needle) in Kit^W/W-v mice that had been engrafted i.p. with BMCMCs of C57BL/6-Ntsr1^+/+ or -Ntsr1^−/− origin.
FIGS. 19a-19f. (a-c) Flow cytometry analysis and (d, e) confocal microscopy of Ntsr+/+ (a, c) or Ntsr1−/−2−/− (b) PMCs pre-loaded with either NT-rhodamine (a, b) or scrambled peptide-rhodamine (c) ([…]) (red) that were placed at 37° C. for the indicated times. Control cells pre-loaded with either NT-rhodamine or scrambled peptide-rhodamine were maintained at 4° C. (“0 min”). PMCs were identified among other peritoneal lavage cells (PLCs) in confocal microscopy by green staining of IgE bound to the PMC surface and in flow cytometry by staining of c-Kit receptors. (f) Fold increase in mean fluorescence intensity by flow cytometry in PMCs versus other (non mast cell) PLCs obtained from Ntsr+/+ mice incubated for 15 min at 37° C. with NT-rhodamine when compared to control cells that were maintained at 4° C. for 15 min. Data are representative of (a-e) or pooled from (f) the three experiments performed, each of which gave similar results.
Flow cytomety and confocal microscopy. Cells were incubated for 16 h in DMEM+10% FCS+2 μg/ml IgE (hybridoma H1-DNP-ε26). Cells were washed and resuspended in DMEM+10% fetal calf serum (FCS)+NT-rhodamine (AnaSpec) (50 μM) and placed at 4° C. for 1 h. Some cells then were placed at 37° C. for 5 or 15 min. IgE Abs bound to PMCs were stained with FITC-conjugated anti-mouse IgE Abs (BD Biosciences). Levels of surface IgE were analyzed by flow cytometry, as described above.

T1 sequence (Q91YP2 38-704): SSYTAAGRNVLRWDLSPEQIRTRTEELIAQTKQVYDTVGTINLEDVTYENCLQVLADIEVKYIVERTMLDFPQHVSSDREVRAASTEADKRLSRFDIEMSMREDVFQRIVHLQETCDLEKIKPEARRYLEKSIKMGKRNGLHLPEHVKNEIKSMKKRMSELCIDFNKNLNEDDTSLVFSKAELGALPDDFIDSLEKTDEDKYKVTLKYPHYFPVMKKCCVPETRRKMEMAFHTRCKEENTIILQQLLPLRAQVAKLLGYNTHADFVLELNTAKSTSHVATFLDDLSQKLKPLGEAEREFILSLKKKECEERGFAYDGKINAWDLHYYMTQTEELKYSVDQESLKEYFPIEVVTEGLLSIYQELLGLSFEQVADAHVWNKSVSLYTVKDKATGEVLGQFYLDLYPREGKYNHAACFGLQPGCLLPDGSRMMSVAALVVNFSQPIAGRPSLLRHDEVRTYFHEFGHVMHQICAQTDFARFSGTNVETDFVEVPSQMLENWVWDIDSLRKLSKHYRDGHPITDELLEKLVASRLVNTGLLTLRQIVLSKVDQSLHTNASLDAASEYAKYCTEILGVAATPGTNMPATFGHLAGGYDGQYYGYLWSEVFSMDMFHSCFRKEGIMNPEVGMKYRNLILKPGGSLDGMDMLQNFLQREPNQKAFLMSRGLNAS

With `CC(NC(=O)C(C)NC(CCc1ccccc1)C(=O)O)C(=O)NC(Cc1ccccc1)C(=O)Nc1ccc(C(=O)O)cc1` (stereo not drawn) [CFp-Ala-Ala-Phe-pAB] the “NT degradation by PLCs in presence of protease inhibitor” value (from here on “NT degradation … of protease inhibitor”) (PLCs containing PMCs) was “did not prevent NT degradation”.

For `CC[C@H](C)[C@H](NC(=O)[C@@H]1CCCN1)C(=O)O` [Pro-Ile] (H-Pro-Ile-OH), the “NT degradation by membrane or cytosol preparations of BMCMCs” value (neurolysin (NLN)) was “almost completely inhibited”.

For `COc1cccc(OC)c1-c1cc(C(=O)NC2(C(=O)O)C3CC4CC(C3)CC2C4)nn1-c1ccnc2cc(Cl)ccc12` (stereo not drawn) [SR48692], the “affinity for NTR1” value (NTR1) is listed as “nanomolar affinity”.

For `CC(C)C[C@H](NC(=O)[C@@H](NC(=O)N[C@@H](Cc1ccccc1)C(=O)O)[C@@H]1CCN=C(N)N1)C(=O)N[C@H](C=O)Cc1ccccc1` [chymostatin], the “NT degradation … of protease inhibitor” value (PLCs containing PMCs) was “did not prevent NT degradation”.

In the case of NT-rhodamine: rhodamine-labelled NT, the “binding and internalization by PMCs” value (PMCs; C57BL/6 PMCs, 50 μM, 37° C. for 5 or 15 min) is reported as “bound and internalized”, the “internalization by PMCs lacking Ntsr1 and Ntsr2” value (PMCs; Ntsr1−/−2−/− PMCs, 10 µM, 37° C.) is reported as “peptide internalization did not occur” and the “uptake by PMCs compared with non mast cells of the peritoneal cavity” value (PMCs; Ntsr+/+ PLCs, 15 min at 37° C.) is reported as “more efficient”. The “internalization by PMCs” value (PMCs; Ntsr+/+ PMCs, 10 µM, 37° C.) was “able to internalize”.

With “PCI: potato carboxypeptidase inhibitor; mouse MC carboxypeptidase A (mMC-CPA) inhibitor (QQHADPICNKPCKTHDDCSGAWFCQACWNSARTCGPYVG; UniProt P01075 1-39, looked up)” the “NT degradation … of protease inhibitor” value (PLCs containing PMCs) was “significantly inhibited”.

Reference: US8449864B2 (The Board of Trustees of the Leland Stanford Junior …, priority 2006, dated 2013)
